Reference: patent US20040267001A1, “Genes encoding baeyer-villiger monooxygenases” (priority 2001, published 2004)

B1: ORF 8: Rhodococcus erythropolis AN12 ORF 8 chnB monooxygenase, protein SEQ ID NO:22, expressed in E. coli (protein)
chain: MSTEGKYALIGAGPSGLAGARNLDRAGIAFDGFESHDDVGGLWDIDNPHSTVYESAHLISSKGTTAFAEFPMADSVADYPSHIELAEYFRDYADTHDLRRHFAFGTTVIDVLPVDSLWQVTTRSRSGETSVARYRGVIIANGTLSKPNIPTFRGDFTGTLMHTSEYRSAEIFRGKRVLVIGAGNSGCDIAVDAVHQAECVDLSVRRGYYFVPKYLFGRPSDTLNQGKPLPPWIKQRVDTLLLKQFTGDPVRFGFPAPDYKIYESHPVVNSLILHHIGHGDVHVRADVDRFEGKTVRFVDGSSADYDLVLCATGYHLDYPFIAREDLDWSGAAPDLFLNVASRRHDNLFVLGMVEASGLGWQGRYQQAELVAKLITARTEAPAAAREFSAAAAGPPPDLSGGYKYLKLGRMAYYVNKDAYRSAIRRHIGLLDAALTKGGQ
modifications: Rhodococcus erythropolis AN12

What was measured:
[1] = test system: Acidovorax sp. CHX chnB monooxygenase; assay: chnB monooxygenase activity assay, NADPH oxidation at 340 nm, purified over-expressed enzyme; format: biochemical; details: 1.25 mM substrate, pH 7.5; ND = No Activity Detected
Source text: (§1) Following amplification, the chnB gene fragments were cloned into pTrcHis-TOPO TA vectors with either an N-terminal tail or C-terminal tail, as provided by the vector sequence (N-terminal tail for Brevibacterium sp. HCU, Rhodococcus sp. phi1, Rhodococcus sp. phi2, and Arthrobacter sp. BP2 monooxygenases; C-terminal tail for Acinetobacter sp. SE19 and Acidovorax sp. CHX monooxygenases). These vectors were transformed into E. coli, with transformants grown in Luria-Bertani broth supplemented with ampicillin (100 ug/ml) and riboflavin (0.1 ug/ml) at 30° C. until the absorbance at 600 nm (A600) reached 0.5. When the A600 was reached, the temperature was shifted to 16° C.
(§2) The encoded monooxygenase sequences were expressed upon addition of IPTG to the culture media, 30 min after the temperature shift to 16° C. The cultures were grown further ovemight (14 hrs) and harvested by centrifugation in a cold centrifuge. The cells were treated with lysozyme (100 mg/ml) for 30 min on ice and sonicated. Following sonication, cell extracts were centrifuged and the supernatant was equilibrated with Ni-NTA resin (Qiagen, Valencia, Calif.) for 1 hr at 4° C. Protein bound resin was washed successively with increasing concentrations of imidazole buffer until the protein of interest was released from the resin. The purified protein was concentrated and the buffer exchanged to remove the imidazole. The protein concentration was adjusted to 1 ug/ml.
(§3) Compounds were selected on the basis of previous observations by van der Werf (J. Biochem. 347:693-701 (2000)) and Miyamoto et al. (Biochimica et Biophysica Acta 1251: 115-124 (1995)) and by searches for the ketone substructure.
(§4) All compounds were obtained from Sigma-Aldrich with only two exceptions. Levoglucosenone was obtained from Toronto Research Chemicals, Inc. and dimethyl-2-piperidone was prepared according to U.S. Pat. No. 6,077,955. For enzyme assays all compounds were dissolved to a concentration of 0.1 M in methanol, with the exceptions of norcamphor (dissolved in ethyl acetate), cyclododecanone, cycltridecanone and cyclopentadecanone (dissolved in propanol), and levoglucosenone (dissolved with acetone).
(§5) The monooxygenase activity of each over-expressed enzyme was assayed spectrophotometrically at 340 nm by monitoring the oxidation of NADPH. Assays were performed in individual quartz cuvettes, with a pathlength of 1 cm. […] An Ultrospec 4000 (Pharmacia Biotech, Cambridge, England) was used to read the absorbance of the samples over a two to ten minute time period and the SWIFT (Pharmacia Biotech) program was used to calculate the slope of the reduction in absorbance over time. For the Brevibactedum sp. […] Monooxygenase activity of each over-expressed enzyme is shown in Table 5, with respect to each ketone substrate. The specific activity values listed are given in umol/min/mg. The notation “ND” refers to “No Activity Detected”.

[2] = test system: Rhodococcus sp. phi2 chnB monooxygenase; assay: as above; format: biochemical; details: 1.25 mM substrate, pH 7.5; ND = No Activity Detected
Source text: as §1, §2, §3, §4, §5

[3] = test system: Brevibacterium sp. HCU chnB2 monooxygenase; assay: as above; format: biochemical; details: 1.25 mM substrate, pH 7.5; rates multiplied by a factor of 3.25 to adjust for decrease in activity due to storage; ND = No Activity Detected
Source text: as §1, §2, §3, §4, §5

[4] = test system: Brevibacterium sp. HCU chnB1 monooxygenase; assay: as above; format: biochemical; details: 1.25 mM substrate, pH 7.5; ND = No Activity Detected
Source text: as §1, §2, §3, §4, §5

[5] = biological target: T1, Acinetobacter sp. SE19 chnB monooxygenase (Acinetobacter sp., UniProt Q9F7E4); assay: as above; format: biochemical; details: 1.25 mM substrate, pH 7.5; ND = No Activity Detected
T1 construct: isolated full length BVMO genes from Brevibacterium sp; HCU, Acinetobacter SE19; C-terminal tail provided by the pTrcHis-TOPO vector (C); made in house; host or cells: E. coli
Source text: as §1, §2, §3, §4, §5

[6] = test system: Arthrobacter sp. BP2 chnB monooxygenase; assay: as above; format: biochemical; details: 1.25 mM substrate, pH 7.5; ND = No Activity Detected
Source text: as §1, §2, §3, §4, §5

[7] = test system: Rhodococcus sp. phi1 chnB monooxygenase; assay: as above; format: biochemical; details: 1.25 mM substrate, pH 7.5; ND = No Activity Detected
Source text: as §1, §2, §3, §4, §5

[8] = Conversion of cyclohexanone to caprolactone by E. coli clones expressing Rhodococcus erythropolis AN12 monooxygenases, GC-MS detection; format: cell-based, Escherichia coli; details: 500 mg/L cyclohexanone, 0.1 mM IPTG, overnight at 24° C., GC-MS of ethylacetate extract
Description: Following amplification, the gene fragments were cloned into pTrcHis-TOPO TA vectors with either an N-terminal tail or C-terminal tail, as provided by the vector sequence. These vectors were transformed into E. coli, with transformants grown in Luria-Bertani broth supplemented with ampicillin (100 ug/ml).
The chnB monooxygenase activity of each expressed enzyme from Example 9 was tested for activity according to its ability to convert cyclohexanone to caprolactone.
Clones containing the full length monooxygenase genes were transferred from LB agar plate to 5 mL of M63 minimal media (GIBCO) containing 10 mM glycerol, 50 ug/mL ampicillin, 0.1 mM IPTG, and 500 mg/L cyclohexanone. In addition to the clones containing full length monooxygenases, a plasmid without an insert and a “no cell” control were also assayed. The encoded monooxygenase sequences were expressed upon addition of IPTG to the culture media. The cultures were incubated overnight at room temperature (24° C.). Samples (1.25 mL) for analysis were taken immediately after inoculation and after overnight incubation; cells were removed by centrifugation (4° C., 13,000 rpm).
Caprolactone formed by the action of the cloned monooxygenase was extracted from the aqueous phase with ethylacetate (1.0 ml aqueous/0.5 mL ethylacetate). Caprolactone was detected by gas chromotagraphy mass spectrometry (GC-MS) analysis, using an Agilent 6890 Gas chromatograph system.
The analysis of the ethylacetate phase was performed by injecting 1 uL of the ethyl acetate phase into the GC. The inlet temperature was 115° C. and the column temperature profile was 50° C. for 4 min and ramped to 250° C. at 20° C./min, for a total run time of 14 min. The compounds were separated with an Hewlet Packard HP-5MS (5% phenyl Methyl Siloxane) column (30 m length, 250 um diameter, and 0.25 um film thickness). The mass spectrometer was run in Electron Ionization mode. The background mass spectra was subtracted from the spectra at the retention time of caprolactone (9.857 min). Presence of caprolactone was confirmed by comparison of the test reactions to an authentic standard obtained from Aldrich Chemical Company (St. Louis, Mo.).
Results of these assays are shown below in Table 7, in terms of the presence or absence of detectable caprolactone formation according to the activity of each expressed BV monooxygenase enzyme.

Row | Molecule | Specific Activity of Monooxygenase Enzymes Against Various Ketone Substrates, sp. CHX chnB [1] [µmol/min/mg] | Specific Activity of Monooxygenase Enzymes Against Various Ketone Substrates, sp. phi2 chnB [2] [µmol/min/mg] | Specific Activity of Monooxygenase Enzymes Against Various Ketone Substrates, sp. HCU chnB2 [3] [µmol/min/mg] | Specific Activity of Monooxygenase Enzymes Against Various Ketone Substrates, sp. HCU chnB1 [4] [µmol/min/mg] | Specific Activity of Monooxygenase Enzymes Against Various Ketone Substrates, sp. SE19 chnB [5] [µmol/min/mg] | Specific Activity of Monooxygenase Enzymes Against Various Ketone Substrates, sp. BP2 chnB [6] [µmol/min/mg] | Specific Activity of Monooxygenase Enzymes Against Various Ketone Substrates, sp. phi1 chnB [7] [µmol/min/mg] | Formation of Caprolactone (ability to convert cyclohexanone to caprolactone) [8]
1 | O=C1C=CCCC1 [Cyclohex-2-ene-1-one] | 0.666 | 3.091 | 0.541 | 0.435 | 5.357 | 2.739 | 2.694 | –
2 | O=C1Cc2ccccc2N1 [Oxindole] | 0.307 | 4.858 | 0.229 | 2.438 | 7.091 | 4.845 | 3.411 | –
3 | CC(=O)/C=C/C1=C(C)CCCC1(C)C [beta-ionone] | 0.544 | 0.544 | 0.374 | 0.109 | 3.347 | 1.485 | 2.707 | –
4 | dimethy-2-piperidone | 0.557 | 6.509 | 0.354 | 2.822 | 8.384 | 4.154 | 3.539 | –
5 | O=C1CCC(=O)CC1 [1,4-cyclohexanedione] | 0.794 | 6.150 | 1.123 | 3.405 | 8.346 | 3.994 | 3.302 | –
6 | O=C1CCCCC1 [Cyclohexanone] | 0.397 | 3.750 | 1.726 | 2.765 | 6.349 | 3.565 | 3.680 | –
7 | O=C1CCCCCC1 [Cycloheptanone] | 0.608 | 6.234 | 0.374 | 0.646 | 8.422 | 3.846 | 3.622 | –
8 | O=C1CC2CC[C@H]1C2 [Norcamphor] | 0.166 | 2.816 | 1.331 | 0.410 | 4.474 | 2.842 | 1.504 | –
9 | B1 | – | – | – | – | – | – | – | Detected
